According to patent US8580763B2, “2, 6-dinitrogen-containing substituted purine derivatives, the preparation and uses thereof” (Zhanggui Wu, priority 2007, dated 2013):

Experiments:
lymph cancer Ramos = assay: anticancer activity in vitro (SRB, MTT), lymph cancer Ramos; type: cell-based; conditions: Homo sapiens, action time about 72 h
Experimental: (§1) Antitumor activity tests in vitro and in vivo are carried out to the parital compounds prepared from the above examples. Wherein the method of SRB, MTT is used in vitro, and the action time is about 72 h. Inhibitory effects of the compounds on the growth of mouse Conlon26 cancer are shown in Table 2, inhibitory effects of the compounds on the growth of mouse S180 sarcoma are shown in Table 3.

[1] = test system: human liver cancer Bel-7402; assay: anticancer activity in vitro (SRB, MTT), human liver cancer Bel-7402; type: cell-based; conditions: action time about 72 h
Experimental: as §1

[2] = test system: non-small cell lung cancer; assay: anticancer activity in vitro (SRB, MTT), non-small cell lung cancer; type: cell-based; conditions: action time about 72 h
Experimental: as §1

colon cancer HT-29 = assay: anticancer activity in vitro (SRB, MTT), colon cancer HT-29; type: cell-based; conditions: Homo sapiens, action time about 72 h
Experimental: as §1

mouse Colon26 cancer = assay: inhibitory effects on the growth of mouse Colon26 cancer in vivo; conditions: for End body weight / Inhibition rate / Tumor removed body weight / Tumor weight / Initial body weight: Colon26 mice; for Initial body weight: baseline
Experimental: as §1

mouse S180 sarcoma = assay: inhibitory effects on the growth of mouse S180 sarcoma in vivo; conditions: for End body weight / Inhibition rate / Tumor removed body weight / Tumor weight / Initial body weight: S180 mice; for Initial body weight: baseline
Experimental: as §1

[3] = test system: four different cancer cells; assay: antitumor activity in vitro, summary over the four cancer cells of Table 1; type: cell-based; conditions: summary of Table 1
Experimental: as §1
Compared with compound I, compound XX has better antitumor effects.

COc1cccc2c1C(=O)c1c(O)c3c(c(O)c1C2=O)C[C@@](O)(C(=O)CO)C[C@@H]3O[C@H]1C[C@H](N)[C@H](O)[C@H](C)O1 [ADR, adriamycin, reference compound]
IC50 (lymph cancer Ramos): 0.19 µM
IC50 [1]: 0.02 µM
IC50 [2]: 0.05 µM
IC50 (colon cancer HT-29): 0.38 µM

O=P1(N(CCCl)CCCl)NCCCO1 (stereo not drawn) [CTX, cyclophosphamide, reference compound]
End body weight (mouse Colon26 cancer; 30 mg/kg i.p.): 20.33 g
Inhibition rate (mouse Colon26 cancer; 30 mg/kg i.p.): 78.14%
Tumor removed body weight (mouse Colon26 cancer; 30 mg/kg i.p.): 19.93 g
Tumor weight (mouse Colon26 cancer; 30 mg/kg i.p.): 0.40 g
Initial body weight (mouse Colon26 cancer; 30 mg/kg i.p.): 20.03 g
End body weight (mouse S180 sarcoma; 30 mg/kg i.p.): 20.31 g
Inhibition rate (mouse S180 sarcoma; 30 mg/kg i.p.): 79.82%
Tumor removed body weight (mouse S180 sarcoma; 30 mg/kg i.p.): 19.85 g
Tumor weight (mouse S180 sarcoma; 30 mg/kg i.p.): 0.46 g
Initial body weight (mouse S180 sarcoma; 30 mg/kg i.p.): 19.65 g

c1cnc2ccc(Nc3nc(N4CCCC4)c4nc[nH]c4n3)cc2c1 [Compound IV]
antitumor activity to four different cancer cells (in words) [3]: the best
IC50 (lymph cancer Ramos): 0.67 µM
End body weight (mouse Colon26 cancer; 100 mg/kg p.o.): 19.32 g
Inhibition rate (mouse Colon26 cancer; 100 mg/kg p.o.): 33.31%
Tumor removed body weight (mouse Colon26 cancer; 100 mg/kg p.o.): 18.10 g
Tumor weight (mouse Colon26 cancer; 100 mg/kg p.o.): 1.22 g
Initial body weight (mouse Colon26 cancer; 100 mg/kg p.o.): 20.09 g
End body weight (mouse Colon26 cancer; 150 mg/kg p.o.): 18.41 g
Inhibition rate (mouse Colon26 cancer; 150 mg/kg p.o.): 54.45%
Tumor removed body weight (mouse Colon26 cancer; 150 mg/kg p.o.): 17.57 g
Tumor weight (mouse Colon26 cancer; 150 mg/kg p.o.): 0.83 g
Initial body weight (mouse Colon26 cancer; 150 mg/kg p.o.): 20.10 g
IC50 [1]: 0.67 µM
End body weight (mouse S180 sarcoma; 100 mg/kg p.o.): 20.77 g
Inhibition rate (mouse S180 sarcoma; 100 mg/kg p.o.): 31.95%
Tumor removed body weight (mouse S180 sarcoma; 100 mg/kg p.o.): 19.22 g
Tumor weight (mouse S180 sarcoma; 100 mg/kg p.o.): 1.55 g
Initial body weight (mouse S180 sarcoma; 100 mg/kg p.o.): 18.99 g
End body weight (mouse S180 sarcoma; 200 mg/kg p.o.): 19.12 g
Inhibition rate (mouse S180 sarcoma; 200 mg/kg p.o.): 55.37%
Tumor removed body weight (mouse S180 sarcoma; 200 mg/kg p.o.): 18.10 g
Tumor weight (mouse S180 sarcoma; 200 mg/kg p.o.): 1.02 g
Initial body weight (mouse S180 sarcoma; 200 mg/kg p.o.): 19.49 g
IC50 [2]: 2.28 µM
IC50 (colon cancer HT-29): 0.38 µM

C=CCNc1nc(Nc2ccc3ncccc3c2)nc2[nH]cnc12 [Compound I]
antitumor activity to four different cancer cells (in words) [3]: higher antitumor activity
IC50 (lymph cancer Ramos): 5.78 µM
inhibitory effects on mouse Colon26 cancer (in words) (mouse Colon26 cancer; 100 mg/kg dosage): better inhibitory effects
End body weight (mouse Colon26 cancer; 100 mg/kg p.o.): 18.15 g
Inhibition rate (mouse Colon26 cancer; 100 mg/kg p.o.): 62.25%
Tumor removed body weight (mouse Colon26 cancer; 100 mg/kg p.o.): 17.46 g
Tumor weight (mouse Colon26 cancer; 100 mg/kg p.o.): 0.69 g
Initial body weight (mouse Colon26 cancer; 100 mg/kg p.o.): 19.47 g
End body weight (mouse Colon26 cancer; 150 mg/kg p.o.): 17.96 g
Inhibition rate (mouse Colon26 cancer; 150 mg/kg p.o.): 76.52%
Tumor removed body weight (mouse Colon26 cancer; 150 mg/kg p.o.): 17.26 g
Tumor weight (mouse Colon26 cancer; 150 mg/kg p.o.): 0.43 g
Initial body weight (mouse Colon26 cancer; 150 mg/kg p.o.): 21.10 g
IC50 [1]: 1.58 µM
inhibitory effects on mouse S180 sarcoma (in words) (mouse S180 sarcoma; 100 mg/kg dosage): better inhibitory effects
End body weight (mouse S180 sarcoma; 100 mg/kg p.o.): 18.32 g
Inhibition rate (mouse S180 sarcoma; 100 mg/kg p.o.): 68.93%
Tumor removed body weight (mouse S180 sarcoma; 100 mg/kg p.o.): 17.61 g
Tumor weight (mouse S180 sarcoma; 100 mg/kg p.o.): 0.71 g
Initial body weight (mouse S180 sarcoma; 100 mg/kg p.o.): 19.74 g
End body weight (mouse S180 sarcoma; 200 mg/kg p.o.): 16.04 g
Inhibition rate (mouse S180 sarcoma; 200 mg/kg p.o.): 70.21%
Tumor removed body weight (mouse S180 sarcoma; 200 mg/kg p.o.): 15.36 g
Tumor weight (mouse S180 sarcoma; 200 mg/kg p.o.): 0.68 g
Initial body weight (mouse S180 sarcoma; 200 mg/kg p.o.): 18.97 g
IC50 [2]: 3.61 µM
IC50 (colon cancer HT-29): 8.61 µM

CNc1nc(Nc2ccc3ncccc3c2)nc2[nH]cnc12 [Compound VII]
antitumor activity to four different cancer cells (in words) [3]: higher antitumor activity
IC50 (lymph cancer Ramos): 1.27 µM
IC50 [1]: 0.23 µM
IC50 [2]: 6.65 µM
IC50 (colon cancer HT-29): 4.01 µM

C=CCN(CC=C)c1nc(Nc2ccc3ncccc3c2)nc2[nH]cnc12 [Compound XIII]
antitumor activity to four different cancer cells (in words) [3]: higher antitumor activity
IC50 (lymph cancer Ramos): 3.01 µM
IC50 [1]: 3.46 µM
IC50 [2]: 1.71 µM
IC50 (colon cancer HT-29): 1.94 µM

CN1CCN(c2nc(Nc3ccc4ncccc4c3)nc3[nH]cnc23)CC1 [Compound XII]
End body weight (mouse Colon26 cancer; 100 mg/kg p.o.): 19.16 g
Inhibition rate (mouse Colon26 cancer; 100 mg/kg p.o.): 35.18%
Tumor removed body weight (mouse Colon26 cancer; 100 mg/kg p.o.): 17.98 g
Tumor weight (mouse Colon26 cancer; 100 mg/kg p.o.): 1.19 g
Initial body weight (mouse Colon26 cancer; 100 mg/kg p.o.): 19.06 g
End body weight (mouse Colon26 cancer; 150 mg/kg p.o.): 18.28 g
Inhibition rate (mouse Colon26 cancer; 150 mg/kg p.o.): 50.16%
Tumor removed body weight (mouse Colon26 cancer; 150 mg/kg p.o.): 17.36 g
Tumor weight (mouse Colon26 cancer; 150 mg/kg p.o.): 0.91 g
Initial body weight (mouse Colon26 cancer; 150 mg/kg p.o.): 19.16 g
End body weight (mouse S180 sarcoma; 100 mg/kg p.o.): 22.58 g
Inhibition rate (mouse S180 sarcoma; 100 mg/kg p.o.): 28.19%
Tumor removed body weight (mouse S180 sarcoma; 100 mg/kg p.o.): 20.94 g
Tumor weight (mouse S180 sarcoma; 100 mg/kg p.o.): 1.63 g
Initial body weight (mouse S180 sarcoma; 100 mg/kg p.o.): 19.22 g
End body weight (mouse S180 sarcoma; 200 mg/kg p.o.): 21.35 g
Inhibition rate (mouse S180 sarcoma; 200 mg/kg p.o.): 46.96%
Tumor removed body weight (mouse S180 sarcoma; 200 mg/kg p.o.): 20.14 g
Tumor weight (mouse S180 sarcoma; 200 mg/kg p.o.): 1.21 g
Initial body weight (mouse S180 sarcoma; 200 mg/kg p.o.): 19.46 g

c1cnc2ccc(Nc3nc(N4CCCCC4)c4nc[nH]c4n3)cc2c1 [Compound XIV]
antitumor activity to four different cancer cells (in words) [3]: higher antitumor activity
IC50 (lymph cancer Ramos): 2.93 µM
IC50 [1]: 4.62 µM
IC50 [2]: 1.33 µM
IC50 (colon cancer HT-29): 2.22 µM

CCN1CCN(c2nc(Nc3ccc4ncccc4c3)nc3[nH]cnc23)CC1 [Compound XV]
antitumor activity to four different cancer cells (in words) [3]: higher antitumor activity
IC50 (lymph cancer Ramos): 2.87 µM
IC50 [1]: 5.46 µM
IC50 [2]: 3.36 µM
IC50 (colon cancer HT-29): 4.27 µM

COc1cc(Nc2nc(NC3CC3)c3nc[nH]c3n2)cc2cccnc12 [Compound XXIII]
IC50 (lymph cancer Ramos): 2.63 µM
IC50 [1]: 5.91 µM
IC50 [2]: 13.2 µM
IC50 (colon cancer HT-29): 5.72 µM

FC(F)(F)c1cc(Nc2nc(NC3CC3)c3nc[nH]c3n2)cc2cccnc12 [Compound XXIV]
IC50 (lymph cancer Ramos): > 100 µM
IC50 [1]: > 100 µM
IC50 [2]: 11.7 µM
IC50 (colon cancer HT-29): > 100 µM

c1cc(Nc2nc(NC3CC3)c3nc[nH]c3n2)ccn1 [Compound XXIX]
IC50 (lymph cancer Ramos): 4.14 µM
IC50 [1]: 4.89 µM
IC50 [2]: 7.55 µM
IC50 (colon cancer HT-29): 16.8 µM

c1cnc2ccc(Nc3nc(N4CCNCC4)c4nc[nH]c4n3)cc2c1 [Compound XXI]
antitumor activity to four different cancer cells (in words) [3]: higher antitumor activity
IC50 (lymph cancer Ramos): 2.33 µM
IC50 [1]: 2.33 µM
IC50 [2]: 6.27 µM
IC50 (colon cancer HT-29): 2.74 µM

c1ccc(Nc2nc(NC3CC3)c3nc[nH]c3n2)nc1 [Compound XXVIII]
IC50 (lymph cancer Ramos): 51.9 µM
IC50 [1]: 80.2 µM
IC50 [2]: 61.4 µM
IC50 (colon cancer HT-29): 81.4 µM

Cc1cc(Nc2nc(NC3CC3)c3nc[nH]c3n2)c2ccccc2n1 [Compound XXV]
IC50 (lymph cancer Ramos): 5.28 µM
IC50 [1]: 5.28 µM
IC50 [2]: 13.8 µM
IC50 (colon cancer HT-29): 2.25 µM

O=[N+]([O-])c1ccc(Nc2nc(NC3CC3)c3nc[nH]c3n2)cc1 [Compound XXX]
IC50 (lymph cancer Ramos): > 100 µM
IC50 [1]: > 100 µM
IC50 [2]: 11.1 µM
IC50 (colon cancer HT-29): > 100 µM

CN(C)c1nc(Nc2ccc3ncccc3c2)nc2[nH]cnc12 [Compound XX]
End body weight (mouse Colon26 cancer; 100 mg/kg p.o.): 18.74 g
Inhibition rate (mouse Colon26 cancer; 100 mg/kg p.o.): 72.31%
Tumor removed body weight (mouse Colon26 cancer; 100 mg/kg p.o.): 18.23 g
Tumor weight (mouse Colon26 cancer; 100 mg/kg p.o.): 0.51 g
Initial body weight (mouse Colon26 cancer; 100 mg/kg p.o.): 19.64 g
End body weight (mouse Colon26 cancer; 150 mg/kg p.o.): 18.68 g
Inhibition rate (mouse Colon26 cancer; 150 mg/kg p.o.): 79.47%
Tumor removed body weight (mouse Colon26 cancer; 150 mg/kg p.o.): 18.31 g
Tumor weight (mouse Colon26 cancer; 150 mg/kg p.o.): 0.38 g
Initial body weight (mouse Colon26 cancer; 150 mg/kg p.o.): 19.90 g
End body weight (mouse S180 sarcoma; 100 mg/kg p.o.): 16.53 g
Inhibition rate (mouse S180 sarcoma; 100 mg/kg p.o.): 72.19%
Tumor removed body weight (mouse S180 sarcoma; 100 mg/kg p.o.): 15.90 g
Tumor weight (mouse S180 sarcoma; 100 mg/kg p.o.): 0.63 g
Initial body weight (mouse S180 sarcoma; 100 mg/kg p.o.): 19.96 g
End body weight (mouse S180 sarcoma; 200 mg/kg p.o.): 16.80 g
Inhibition rate (mouse S180 sarcoma; 200 mg/kg p.o.): 73.38%
Tumor removed body weight (mouse S180 sarcoma; 200 mg/kg p.o.): 16.20 g
Tumor weight (mouse S180 sarcoma; 200 mg/kg p.o.): 0.61 g
Initial body weight (mouse S180 sarcoma; 200 mg/kg p.o.): 19.58 g

CC(CO)Nc1nc(Nc2ccc3ncccc3c2)nc2[nH]cnc12 (stereo not drawn) [Compound X]
IC50 (lymph cancer Ramos): 4.96 µM
IC50 [1]: 1.78 µM
IC50 [2]: 12.5 µM
IC50 (colon cancer HT-29): 24.2 µM
